Results taken from patent US20070015662A1, “Herbicide/safener combination” (Bayer CropScience GmbH, priority 2005, published 2007).

Legend:
[1] = system: Sinapis alba, Chrysanthemum segetum, Avena sativa, Stellaria media, Echinochloa crus-galli, Lolium multiflorum, Setaria viridis, Abutilon theophrasti …; assay: Pre-emergence action against weeds (greenhouse pot test, optical scoring); assay type: in vivo, monocotyledonous and dicotyledonous weed plants; conditions: pre-emergence method; 500 g or less of herbicide (A) per hectare; herbicide/safener combination with safeners II-1, II-9, III-1, b-11, b-14, IX-A3; scored after 3 to 4 weeks
Description: Seeds or rhizome pieces of monocotyledonous and dicotyledonous weed plants were placed in sandy loam soil in cardboard pots and covered with soil. The active compounds (A) and (B), formulated in the form of wettable powders or emulsion concentrates, were then applied to the surface of the covering soil in various dosages as aqueous suspensions or emulsions using a water application rate of 300 to 800 I/ha (converted).
After the treatment, the pots were placed in a greenhouse and kept under good growth conditions for the weeds. Optical scoring of the damage to the plants or emerged plants was carried out after emergence of the test plants after a trial period of 3 to 4 weeks, in comparison to untreated controls. As shown by the results, the tested herbicide/safener combinations have good herbicidal pre-emergence activity against a broad spectrum of weed grasses and broad-leaved weeds.

[2] = system: Sinapis alba, Echinochloa crus-galli, Lolium multiflorum, Chrysanthemum segetum, Setaria viridis, Abutilon theophrasti, Amaranthus retroflexus, Panicum …; assay: Post-emergence action against weeds (greenhouse pot test, visual scoring); assay type: in vivo, monocotyledonous and dicotyledonous weeds; conditions: post-emergence method, three-leaf stage; 500 g or less of herbicide (A) per hectare; herbicide/safener combination with safeners II-1, II-9, III-1, b-11, b-14, IX-A3; scored after about three to four weeks
Procedure: Seeds or rhizome pieces of monocotyledonous and dicotyledonous weeds were placed into sandy loam soil in plastic pots, covered with soil and grown in a greenhouse under good growth conditions. Three weeks after sowing, the test plants were treated at the three-leaf stage. The compounds according to the invention, formulated as wettable powders or as emulsion concentrates, were sprayed onto the green parts of the plants at various dosages using a water application rate of 300 to 800 I/ha (converted). The test plants were stood in the greenhouse under optimum growth conditions for about three to four weeks, and the action of the preparations was then scored visually in comparison to untreated controls. Post-emergence, too, the herbicide/safener combinations according to the invention have good herbicidal activity against a broad spectrum of economically important weed grasses and broad-leaved weeds.

[3] = system: cotton, oilseed rape, sugar beet and Gramineae crops such as barley, wheat, rye, millet, corn or rice; assay: Compatibility with crop plants (greenhouse, visual scoring); assay type: in vivo; conditions: pre-emergence method or post-emergence method; herbicide/safener combination with safeners II-1, II-9, III-1, b-11, b-14, IX-A3; four to five weeks after application
Description: In further greenhouse trials, seeds of a relatively large number of crop plants and weeds were placed into sandy loam soil and covered with soil. Some of the pots were immediately treated as described in Section 1, the others were placed in a greenhouse until the plants had developed two to three true leaves and were then sprayed with various dosages of the herbicide/safener combinations according to the invention, as described in Section 2.

In the case of `CCC1(C)CC(S(=O)(=O)Cc2cccc3c2OC(F)(F)C(F)(F)O3)=NO1` (stereo not shown) [I-22.2], the “herbicidal activity against harmful plants (optical scoring of damage vs untreated controls)” value [1] is reported as “very good herbicidal activity”, the “herbicidal activity against harmful plants (visual scoring vs untreated controls)” value [2] is reported as “very good herbicidal activity” and the “damage to crop plants (visual scoring)” value [3] is reported as “did not cause any damage”.
In the case of `CCC1(C)CC(S(=O)(=O)Cc2c(F)cccc2F)=NO1` (stereo not shown) [I-3.2], the “herbicidal activity against harmful plants (optical scoring of damage vs untreated controls)” value [1] is reported as “very good herbicidal activity”, the “herbicidal activity against harmful plants (visual scoring vs untreated controls)” value [2] is reported as “very good herbicidal activity” and the “damage to crop plants (visual scoring)” value [3] is reported as “did not cause any damage”.
For `CC1(C)CC(S(=O)(=O)Cc2cc3c(cc2Cl)OCO3)=NO1` [I-52.1, 3-{[(6-Chloro-1,3-benzodioxol-5-yl)methyl]sulfonyl}-5,5-dimethyl-4,5-dihydroisoxazole], the melting point was 170 °C, the “herbicidal activity against harmful plants (optical scoring of damage vs untreated controls)” value [1] was “very good herbicidal activity” and the “herbicidal activity against harmful plants (visual scoring vs untreated controls)” value [2] was “very good herbicidal activity”. The “damage to crop plants (visual scoring)” value [3] was “did not cause any damage”.
With `CCC1(C)CC(S(=O)(=O)Cc2c(C(F)(F)F)nn(C)c2OC(F)F)=NO1` (stereo not shown) [I-67.2] the “herbicidal activity against harmful plants (optical scoring of damage vs untreated controls)” value [1] was “very good herbicidal activity”, the “herbicidal activity against harmful plants (visual scoring vs untreated controls)” value [2] was “very good herbicidal activity” and the “damage to crop plants (visual scoring)” value [3] was “did not cause any damage”.
For `CC1(C)CC(S(=O)(=O)Cc2cccc3c2OC(F)(F)C(F)(F)O3)=NO1` [I-22.1], the “herbicidal activity against harmful plants (optical scoring of damage vs untreated controls)” value [1] was “very good herbicidal activity”, the “herbicidal activity against harmful plants (visual scoring vs untreated controls)” value [2] was “very good herbicidal activity” and the “damage to crop plants (visual scoring)” value [3] was “did not cause any damage”.
In the case of `CC1(C)CC(S(=O)(=O)Cc2c(F)cccc2F)=NO1` [I-3.1], the “herbicidal activity against harmful plants (optical scoring of damage vs untreated controls)” value [1] is reported as “very good herbicidal activity”, the “herbicidal activity against harmful plants (visual scoring vs untreated controls)” value [2] is reported as “very good herbicidal activity” and the “damage to crop plants (visual scoring)” value [3] is reported as “did not cause any damage”.
In the case of `CC1(C)CC(S(=O)(=O)Cc2cccc3c2OCC3)=NO1` [I-24.1], the “herbicidal activity against harmful plants (optical scoring of damage vs untreated controls)” value [1] is reported as “very good herbicidal activity”, the “herbicidal activity against harmful plants (visual scoring vs untreated controls)” value [2] is reported as “very good herbicidal activity” and the “damage to crop plants (visual scoring)” value [3] is reported as “did not cause any damage”.
For `Cn1nc(C(F)(F)F)c(CS(=O)(=O)C2=NOC(C)(C)C2)c1Cl` [I-77.1], the “herbicidal activity against harmful plants (optical scoring of damage vs untreated controls)” value [1] was “very good herbicidal activity”, the “herbicidal activity against harmful plants (visual scoring vs untreated controls)” value [2] was “very good herbicidal activity” and the “damage to crop plants (visual scoring)” value [3] was “did not cause any damage”.
With `CCC1(C)CC(S(=O)(=O)Cc2cccc3c2OC(F)(F)O3)=NO1` (stereo not shown) [I-23.2] the “herbicidal activity against harmful plants (optical scoring of damage vs untreated controls)” value [1] was “very good herbicidal activity”, the “herbicidal activity against harmful plants (visual scoring vs untreated controls)” value [2] was “very good herbicidal activity” and the “damage to crop plants (visual scoring)” value [3] was “did not cause any damage”.
With `CCC1(C)CC(S(=O)(=O)Cc2cccc3c2OCCO3)=NO1` (stereo not shown) [I-21.2] the “herbicidal activity against harmful plants (optical scoring of damage vs untreated controls)” value [1] was “very good herbicidal activity”, the “herbicidal activity against harmful plants (visual scoring vs untreated controls)” value [2] was “very good herbicidal activity” and the “damage to crop plants (visual scoring)” value [3] was “did not cause any damage”.
In the case of `CC1(C)CC(S(=O)(=O)Cc2cccc3c2OCCO3)=NO1` [I-21.1], the “herbicidal activity against harmful plants (optical scoring of damage vs untreated controls)” value [1] is reported as “very good herbicidal activity”, the “herbicidal activity against harmful plants (visual scoring vs untreated controls)” value [2] is reported as “very good herbicidal activity” and the “damage to crop plants (visual scoring)” value [3] is reported as “did not cause any damage”.
In the case of `CCC1(C)CC(S(=O)(=O)Cc2cc3c(cc2Cl)OCO3)=NO1` (stereo not shown) [I-52.2], the “herbicidal activity against harmful plants (optical scoring of damage vs untreated controls)” value [1] is reported as “very good herbicidal activity”, the “herbicidal activity against harmful plants (visual scoring vs untreated controls)” value [2] is reported as “very good herbicidal activity” and the “damage to crop plants (visual scoring)” value [3] is reported as “did not cause any damage”.
With `CC1(C)CC(S(=O)(=O)Cc2cccc3c2OC(F)(F)O3)=NO1` [I-23.1] the “herbicidal activity against harmful plants (optical scoring of damage vs untreated controls)” value [1] was “very good herbicidal activity”, the “herbicidal activity against harmful plants (visual scoring vs untreated controls)” value [2] was “very good herbicidal activity” and the “damage to crop plants (visual scoring)” value [3] was “did not cause any damage”.
For `CCC1(C)CC(S(=O)(=O)Cc2cccc3c2OCC3)=NO1` (stereo not shown) [I-24.2], the “herbicidal activity against harmful plants (optical scoring of damage vs untreated controls)” value [1] was “very good herbicidal activity”, the “herbicidal activity against harmful plants (visual scoring vs untreated controls)” value [2] was “very good herbicidal activity” and the “damage to crop plants (visual scoring)” value [3] was “did not cause any damage”.
In the case of `CCC1(C)CC(S(=O)(=O)Cc2cc(F)ccc2F)=NO1` (stereo not shown) [I-2.2], the “herbicidal activity against harmful plants (optical scoring of damage vs untreated controls)” value [1] is reported as “very good herbicidal activity”, the “herbicidal activity against harmful plants (visual scoring vs untreated controls)” value [2] is reported as “very good herbicidal activity” and the “damage to crop plants (visual scoring)” value [3] is reported as “did not cause any damage”.
With `Cn1nc(C(F)(F)F)c(CS(=O)(=O)C2=NOC(C)(C)C2)c1OC(F)F` [I-67.1] the “herbicidal activity against harmful plants (optical scoring of damage vs untreated controls)” value [1] was “very good herbicidal activity”, the “herbicidal activity against harmful plants (visual scoring vs untreated controls)” value [2] was “very good herbicidal activity” and the “damage to crop plants (visual scoring)” value [3] was “did not cause any damage”.
